Key:
AOS-1 T cells = experiment: 4-hour apoptosis assay with 10 nM rimiducid on AOS-1 T cells sorted by CD19 intensity; type: cell-based, human; conditions: for CD19+ specific killing: low-CD19 sorted cells; for median killing efficacy: 10 nM, 4 hours
Description: To measure apoptosis 5×10^5 cells were plated per 48-well, and rimiducid was added at a concentration of 10 nM in a 4-hour assay. Phenotyping and functional assays (e.g., apoptosis) were performed by flow cytometry, qPCR and Western blot before and after T cell reactivation using anti-CD3/anti-CD28 antibodies. The phenotype of the cells was determined by staining cells for flow cytometry analysis with anti-CD3, anti-CD4, anti-CD8, anti-CD19, anti-CD45RA, anti-CD45RO, and anti-CCR7 antibodies. Terminal effector memory cells are defined as CD45RA^+CD45RO^−CCR7^−. T effector memory cells are defined as CD45RA^−CD45RO^+CCR7^−. T central memory cells are defined as CD45RA^−CD45RO^+CCR7^+. Naïve T cells are defined as CD45RA^+CD45RO^−CCR7^+. Diversity of the T cell receptor repertoire was assessed by flow cytometry.

EGFPluc+ iC9-T cells = experiment: T cell bioluminescence (IVIS) in NSG mice after rimiducid; type: in vivo
Description: (§1) In vivo studies were performed by i.v. injection of control or gene-modified T cells co-expressing luciferase into NSG mice. 1×10^7 EGFPluc+ iC9-T cells were infused into NSG mice. T cell bioluminescence was measured at 2 and 24 hours after infusion, followed by i.p. injection of a titrated dose of rimiducid or placebo (control drug). The animals were administered either control drug (temsirolimus; 1 mg/kg), rimiducid (0.001-1 mg/kg), or vehicle. Remaining T cell bioluminescence was measured at 6, 24 and 48 hours after drug administration. Bioluminescent imaging and flow cytometry were performed to assess in vivo depletion following iC9 activation.
The maximal elimination effect in the kill switch induced by rimiducid was reached 24 hours post drug administration. The values for average radiance were normalized to the initial radiance in each mouse using the formula: D Average radiance=100*[Timepoint “X” radiance]/[Timepoint “0” radiance]. Error bars represents S.E.M. Two-way ANOVA test was used to assess statistical significance of differences in T cell radiance between multiple groups at different time points.

[1] = tested on: CD3+CD19+ cells (iC9+ T cells); experiment: flow cytometric analysis of cells harvested from spleens 48 h post drug treatment; type: in vivo, NSG mice; conditions: for reduction of CD3+CD19+ cells in spleen: 48 h, compared to vehicle
Description: as §1
FIG. 18 depicts a flow cytometric analysis of cells harvested from spleens 48 h post drug treatment.

CD3+CD19+ T cells = experiment: rimiducid treatment of patients engrafted with AOS-1 to control GvHD; type: in vivo, human
Description: Engraftment and persistence of the donor modified T cells were measured by co-expression of CD3 and CD19 by flow cytometry. Endogenous and gene-modified T cells were also phenotyped for CD4:CD8 ratios, memory cell composition (TN, TCM, TEM, TEMRA; CD45RA and CD62L) and T cell receptor Vβ diversity.

[2] = tested on: WT1, PRAME, MAGE, NE and PR3; experiment: IFN-γ ELIspot for LAA-specific T cells against peptide pools; type: cell-based, human; conditions: 10 nM rimiducid
Description: PBMCs were mixed with pre-warmed (37° C.) cell culture media and centrifuged cells at […] for 10′ at 4° C. Cells were resuspended and counted using Cellometer. Cells were then centrifuged again at 1200 rpm for 10′. The cells were then resuspended in culture media at a concentration of 1×10^6/mL and 100 μL were added per well. 100 μL of 2X peptide stock or PHA were added to the desired wells. The plates were mixed gently for 2′. The plates were transferred to a 37° C. incubator with 5% CO2 and incubated for 18-24 hours. 100 μL capture anti-IFNγ antibody was added to each PBS-pre wetted well. The plates were then incubated at 4±3° C. overnight. After incubation the plates were washed 3 times with 200 μL D-PBS. Unbound sites were blocked with 100 μL D-PBS containing 10% culture media for 120+15 minutes at room temperature in a BSC. The plates were then washed 3 times with 200 μL D-PBS. 200 μL D-PBS were added into the wells. The plates were left at room temperature until the cells are ready. When cells were ready plates were removed from the incubator and the wells rinsed 2 times with tap water. The plates were then washed 5 times with D-PBS, containing 0.05% Tween 20. The wells and well bottoms were rinsed with distilled water. […] Plates were left to dry at room temperature before reading on an ELISpot reader.

AOS-1 cells = experiment: speed of elimination of low-, medium- and high-CD19 populations in mice after rimiducid (FIG. 27); type: in vivo; conditions: 5 mg/kg rimiducid on day 0, 1.5×10^7 AOS-1 cells on day −1
Excerpt: Figures are means from 40 mice.
Further experiments looked at the speed of elimination of low-CD19, medium-CD19 and high-CD19 populations after administration of rimiducid.

[3] = tested on: genetically-modified T cells; experiment: rimiducid dose that eliminates infused genetically-modified T cells; type: in vivo; conditions: cells infused at 1.5×10^7 cells/kg
[4] = human, in vivo; cited from earlier work

Compound: CC[C@H](C(=O)N1CCCC[C@H]1C(=O)O[C@H](CCc1ccc(OC)c(OC)c1)c1cccc(OCC(=O)NCCNC(=O)COc2cccc([C@@H](CCc3ccc(OC)c(OC)c3)OC(=O)[C@@H]3CCCCN3C(=O)[C@@H](CC)c3cc(OC)c(OC)c(OC)c3)c2)c1)c1cc(OC)c(OC)c(OC)c1 (relative stereo) [rimiducid, 2-Piperidinecarboxylic acid, 1-[(2S)-1-oxo-2-(3,4,5-trimethoxyphenyl)butyl]-, 1,2-ethanediylbis[imino(2-oxo-2,1-ethanediyl)oxy-3,1-phenylene[(1R)-3-(3,4-dimethoxyphenyl)propylidene]] ester, [2S-[1(R*),2R*[S*[S*[1(R*),2R*]]]]]-(9CI)]
- apoptosis (AOS-1 T cells; all fractions after reactivation with anti-CD3/anti-CD28): over 90%
- cells gone through apoptosis (AOS-1 T cells; high MFI of CD19 cells, 10 nM rimiducid, within 4 hours): more than 95%
- CD19+ specific killing (AOS-1 T cells; after activation in vitro): 97%
- CD19+ specific killing (AOS-1 T cells; before activation): 46%
- median killing efficacy (AOS-1 T cells; sorted high CD19 cells): 92%
- median killing efficacy (AOS-1 T cells; sorted low CD19 cells): 69%
- median killing efficacy (AOS-1 T cells; sorted medium CD19 cells): 87%
- killing (AOS-1 T cells; unstimulated high iC9-ΔCD19 cells): 86%
- killing (AOS-1 T cells; unstimulated low iC9-ΔCD19 cells): 50%
- killing (AOS-1 T cells; unstimulated medium iC9-ΔCD19 cells): 76%
- reduction of relative total flux (EGFPluc+ iC9-T cells; 0.01 mg/kg i.p., 6-hour): 82.5%
- reduction of relative total flux (EGFPluc+ iC9-T cells; 0.01 mg/kg i.p., 24-hour): 90.5%
- reduction of relative total flux (EGFPluc+ iC9-T cells; 0.01 mg/kg i.p., 48-hour): 90.5%
- reduction of relative total flux (EGFPluc+ iC9-T cells; 0.1 mg/kg i.p., 6-hour): 92.5%
- reduction of relative total flux (EGFPluc+ iC9-T cells; 0.1 mg/kg i.p., 24-hour): 95.5%
- reduction of relative total flux (EGFPluc+ iC9-T cells; 0.1 mg/kg i.p., 48-hour): 95.3%
- reduction of relative total flux (EGFPluc+ iC9-T cells; 1 mg/kg i.p., 6-hour): 96%
- reduction of relative total flux (EGFPluc+ iC9-T cells; 1 mg/kg i.p., 24-hour): 98.1%
- reduction of relative total flux (EGFPluc+ iC9-T cells; 1 mg/kg i.p., 48-hour): 98.1%
- time at which maximal elimination effect was reached (EGFPluc+ iC9-T cells; post drug administration): 24 h
- reduction of CD3+CD19+ cells in spleen ([1]; 0.01 mg/kg): 99.6%
- reduction of CD3+CD19+ cells in spleen ([1]; 0.1 mg/kg): 98.6%
- reduction of CD3+CD19+ cells in spleen ([1]; 1 mg/kg): 89.6%
- MFI of CD19 in CD3+CD19+ cells ([1]; treated groups, down to 0.001 mg/kg): dose dependent decrease
- course of CD3+CD19+ T cells and GvHD after rimiducid (CD3+CD19+ T cells; patients treated with rimiducid): recovered without further instances of GvHD
- decrease of CD3+CD19+ T cells in the peripheral blood (CD3+CD19+ T cells; three patients with GvHD): 62±12%
- LAA-reactivity on exposure to rimiducid [2]: greatly diminished
- elimination of CD19-high cells (AOS-1 cells): eliminated within half an hour
- elimination of CD19-low cells (AOS-1 cells): declined more slowly
- elimination of CD19-medium cells (AOS-1 cells): fell to near-zero within an hour
- dose that can eliminate cells [3]: 0.4 mg/kg
- safety in healthy volunteers [4]: proven safe in healthy volunteers

— patent US20220002674A1, “T CELLS WITH SUICIDE SWITCH” (priority 2018, published 2022)
